Source: patent publication US10829520B2, “Beta-hairpin peptidomimetics” (POLYPHOR AG, priority 2015, dated 2020)
Where a SMILES comes first, the peptide text is derived from it. Bridges are numbered along the chain shown (N, C = ends). Roman numbers before positions name the chains, in order. [ ]: non-standard residue; d: D form. Tle = CC(C)(C)[C@H](N)C(=O)O; dDab = NCC[C@@H](N)C(=O)O; Nle = CCCC[C@H](N)C(=O)O; Orn = NCCC[C@H](N)C(=O)O; Dab = NCC[C@H](N)C(=O)O; dAze = O=C(O)[C@H]1CCN1; Dap = NC[C@H](N)C(=O)O; Sar = CNCC(=O)O

Tests used:
Assay type in all cases: cell-based
[1] = system: Acinetobacter baumannii 872842; conditions: 872842
[2] = system: Acinetobacter baumannii DSM 30008; conditions: DSM 30008
Method in brief: (§1)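 Peptide stocks (1 mg/mL, water) were diluted two-fold into MH-II broth with 0.002% P-80 and mixed with approx. 10^6 CFU/mL bacteria. Plates were read visually after 18-20 hours at 35° C, with MIC expressed in μg/mL per CLSI.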

Escherichia coli 926415 = conditions: 926415
[3] = system: Escherichia coli ATCC 25922; conditions: ATCC 25922
Method in brief: as §1

[4] = system: Klebsiella pneumoniae 968733; conditions: 968733
[5] = system: Klebsiella pneumoniae SSI #3010; conditions: SSI #3010
Method in brief: as §1

[6] = system: Pseudomonas aeruginosa ATCC 27853; conditions: ATCC 27853
Method in brief: as §1

[7] = system: human red blood cells (hRBC); test: Hemolysis of human red blood cells; conditions: red cells of human, 1 h
Method in brief: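 Each peptide was tested at a single concentration, 100 μg/mL. Erythrocytes (20% v/v) were incubated 1 h at 37° C. under shaking at 300 rpm, centrifuged, and released hemoglobin measured at OD540. Controls were PBS containing 0.001% acetic acid (0%) and Triton X-100 (100%).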

Structure (SMILES) | Acinetobacter baumannii 872842 MIC [1] [µg/mL] | Acinetobacter baumannii DSM 30008 MIC [2] [µg/mL] | Escherichia coli 926415 MIC (Escherichia coli 926415) [µg/mL] | Escherichia coli ATCC 25922 MIC [3] [µg/mL] | Klebsiella pneumoniae 968733 MIC [4] [µg/mL] | Klebsiella pneumoniae SSI #3010 MIC [5] [µg/mL] | Pseudomonas aeruginosa ATCC 27853 MIC [6] [µg/mL] | Hemolysis at 100 μg/mL ([7]; 100 μg/mL) [%] | Hemolysis at 100 μg/mL [7]; 100 [%]
CNCC(=O)N[C@@H](Cc1c[nH]c2ccccc12)C(=O)N[C@H]1CSSC[C@@H](C(=O)N(C)CC(=O)N[C@@H](CCN)C(=O)N[C@H](C(=O)N[C@@H](CCN)C(=O)N[C@H]2CCNC(=O)[C@H]([C@@H](C)O)NC(=O)[C@H](CCN)NC(=O)[C@H](CCN)NC(=O)[C@H](CC(C)C)NC(=O)[C@@H](CC(C)C)NC(=O)[C@H](CCN)NC2=O)[C@@H](C)O)NC(=O)[C@H](Cc2ccc(O)cc2)NC(=O)[C@H](CO)NC(=O)[C@H](CC(C)C)NC(=O)[C@@H]2CCCN2C(=O)[C@H]2CCCN2C(=O)[C@H](CCN)NC(=O)[C@H](C)NC(=O)[C@H](C(C)C)NC1=O [Ex. 185] (H-[Sar]WCVA[Dab][dP]PLSYC[Sar][Dab]T[Dab][Dab][Dab][dL]L[Dab][Dab]T; disulfide 3-12; lactam 17-C) | 1 | 0.25 | 2 | 0.25 | 8 | 1 | 1 | 1 | 
CNCC(=O)N[C@@H](CC(C)C)C(=O)N[C@H]1CSSC[C@@H](C(=O)N(C)CC(=O)N[C@@H](CCN)C(=O)N[C@H](C(=O)N[C@@H](CCN)C(=O)N[C@H]2CCNC(=O)[C@H]([C@@H](C)O)NC(=O)[C@H](CCN)NC(=O)[C@H](CCN)NC(=O)[C@H](CC(C)C)NC(=O)[C@@H](CC(C)C)NC(=O)[C@H](CCN)NC2=O)[C@@H](C)O)NC(=O)[C@H](Cc2ccc(O)cc2)NC(=O)[C@H](CO)NC(=O)[C@H](CC(C)C)NC(=O)[C@@H]2CCCN2C(=O)[C@H]2CCCN2C(=O)[C@H](Cc2ccc(O)cc2)NC(=O)[C@H](C)NC(=O)[C@H](C(C)C)NC1=O [Ex. 186] (H-[Sar]LCVAY[dP]PLSYC[Sar][Dab]T[Dab][Dab][Dab][dL]L[Dab][Dab]T; disulfide 3-12; lactam 17-C) | 0.0625 | 0.1251 | 0.25 | 0.125 | 0.5 | 0.125 | 0.25 | <1 | 
CNCC(=O)N[C@@H](Cc1c[nH]c2ccccc12)C(=O)N[C@H]1CSSC[C@@H](C(=O)N(C)CC(=O)N[C@@H](CCN)C(=O)N[C@H](C(=O)N[C@@H](CCN)C(=O)N[C@H]2CCNC(=O)[C@H]([C@@H](C)O)NC(=O)[C@H](CCNC(=O)[C@@H](N)CCCNC(=N)N)NC(=O)[C@H](CCN)NC(=O)[C@H](CC(C)C)NC(=O)[C@@H](CC(C)C)NC(=O)[C@H](CCN)NC2=O)[C@@H](C)O)NC(=O)[C@H](Cc2ccc(O)cc2)NC(=O)[C@H](CO)NC(=O)[C@H](CC(C)C)NC(=O)[C@@H]2CCCN2C(=O)[C@H]2CCCN2C(=O)[C@H](CO)NC(=O)[C@H](C)NC(=O)[C@H](C(C)C)NC1=O [Ex. 187] (H-[Sar]WCVAS[dP]PLSYC[Sar][Dab]T[Dab][Dab][Dab][dL]L[Dab][Dab](Arg)T; disulfide 3-12; lactam 17-C) | 1 | 0.125 | 2 | 0.125 | 1 | 0.125 | 1 | <1 | 
CC(C)C[C@@H]1NC(=O)[C@H](CO)NC(=O)[C@H](C(C)C)NC(=O)[C@@H]2CCCN2C(=O)[C@H]2CCCN2C(=O)[C@H](CO)NC(=O)[C@H](C)NC(=O)[C@H](C(C)(C)C)NC(=O)[C@@H](NC(=O)[C@@H](N)Cc2c[nH]c3ccccc23)CSSC[C@@H](C(=O)N[C@@H](CCCN)C(=O)N[C@@H](CCN)C(=O)N[C@H]2CCNC(=O)[C@H]([C@@H](C)O)NC(=O)[C@H](CCN)NC(=O)[C@H](CCN)NC(=O)[C@H](CC(C)C)NC(=O)[C@@H](Cc3ccccc3)NC(=O)[C@H](CCN)NC2=O)NC1=O [Ex. 188] (H-WC[Tle]AS[dP]PVSLC[Orn][Dab][Dab][Dab][dF]L[Dab][Dab]T; disulfide 2-11; lactam 14-C) | 1 | 0.25 | 0.25 | 0.25 | 4 | 0.25 | 1 | <1 | 
CC(C)C[C@@H]1NC(=O)[C@@H](CC(C)C)NC(=O)[C@H](CCN)NC(=O)[C@@H](NC(=O)[C@H](CCN)NC(=O)[C@H](CN)NC(=O)[C@@H]2CSSC[C@H](NC(=O)[C@@H](N)Cc3c[nH]c4ccccc34)C(=O)N[C@@H](C(C)(C)C)C(=O)N[C@@H](C)C(=O)N[C@@H]([C@@H](C)O)C(=O)N3CC[C@@H]3C(=O)N3CCC[C@H]3C(=O)N[C@@H](C(C)C)C(=O)N[C@@H](CO)C(=O)N[C@@H](Cc3ccc(O)cc3)C(=O)N2)CCNC(=O)[C@H]([C@@H](C)O)NC(=O)[C@H](CCN)NC(=O)[C@H](CCN)NC1=O [Ex. 189] (H-WC[Tle]AT[dAze]PVSYC[Dap][Dab][Dab][Dab][dL]L[Dab][Dab]T; disulfide 2-11; lactam 14-C) | 0.125 | 0.5 | 0.5 | 0.25 | 1 | 0.5 | 2 | 1 | 
CC(C)C[C@@H]1NC(=O)[C@@H](Cc2ccccc2)NC(=O)[C@H](CCN)NC(=O)[C@@H](NC(=O)[C@H](CCN)NC(=O)[C@H](CCCN)NC(=O)[C@@H]2CSSC[C@H](NC(=O)[C@@H](N)Cc3c[nH]c4ccccc34)C(=O)N[C@@H](C(C)(C)C)C(=O)N[C@H]3CC(=O)NCC[C@H](NC(=O)[C@H](C(C)C)NC(=O)[C@@H]4CCCN4C(=O)[C@H]4CCN4C(=O)[C@H]([C@@H](C)O)NC3=O)C(=O)N[C@@H](Cc3ccc(O)cc3)C(=O)N2)CCNC(=O)[C@H]([C@@H](C)O)NC(=O)[C@H](CCN)NC(=O)[C@H](CCN)NC1=O [Ex. 191] (H-WC[Tle]DT[dAze]PV[Dab]YC[Orn][Dab][Dab][Dab][dF]L[Dab][Dab]T; disulfide 2-11; lactam 4-9, 14-C) | 0.25 | 0.5 | 0.125 | 0.5 | 0.5 | 0.25 | 1 | 6 | 
CCCC[C@@H]1NC(=O)[C@@H]2CCCN2C(=O)[C@H]2CCCN2C(=O)[C@H](CO)NC(=O)[C@H](C)NC(=O)[C@H](C(C)(C)C)NC(=O)[C@H](CCN)NC(=O)[C@H](Cc2c[nH]c3ccccc23)NC(=O)[C@@H](N)CCC(=O)NCC[C@@H](C(N)=O)NC(=O)[C@H](CCC(=O)N[C@H](CCN)C(=O)N[C@H]2CCNC(=O)[C@H]([C@@H](C)O)NC(=O)[C@H](CCN)NC(=O)[C@H](CCN)NC(=O)[C@H](CC(C)C)NC(=O)[C@@H](Cc3ccccc3)NC(=O)[C@H](CCN)NC2=O)NC(=O)[C@H](CCN)NC(=O)[C@H](Cc2ccc(O)cc2)NC(=O)[C@H](CO)NC1=O [Ex. 193] (I: H-EW[Dab][Tle]AS[dP]P[Nle]SY[Dab]E[Dab]-NH2 / II: [dDab][Dab][Dab][dF]L[Dab][Dab]T; lactam I:1-I:14, II:2-II:C; amide I:13-II:N) | 1 | 1 | 0.5 | 0.5 | 1 | 0.5 | 2 |  | <1
